Laboratory results reported in EP4722201A1, “3-PHENYLISOXAZOLINE-5-CARBOXAMIDE COMPOUND, AND PREPARATION METHOD THEREFOR, HERBICIDAL COMPOSITION THEREOF AND USE THEREOF” (Jiangsu Flag Chemical Industry Co., Ltd, priority 2023, dated 2024).

Key:
Experiment in all cases: Indoor herbicide activity determination, Seed Treatment; pre-emergence (soil spray)
Type in all cases: in vivo
[1] = tested on: Digitaria sanguinalis; conditions: read-out: Herbicidal activities (inhibition rate) Digitaria sanguinalis; for inhibition at 60 g/ha: 60 g a.i./ha
Source text: (§1) The testing method for herbicide activity of the compound of the present invention was as follows:
(§2) Seed Treatment; pre-emergence: quantitative seeds of gramineous weeds (Echinochloa crusgalli, Eleusine indica, Digitaria sanguinalis, Alopecurus japonicus, Beckmannia syzigachne, Leptochloa chinensis, Polypogon fugax, Alopecurus aequalis, Lolium multiflorum, Poa annua, Aegilops tauschii, Avena fatua, Alopecurus myosuroides, Alopecurus japonicus and Alopecurus aequalis), broad-leaved weeds (Eclipta prostrata, Amaranthus retroflexus, Rorippa indica, Malachium aquaticum, Veronica polita, Conyza canadensis, Sesbania cannabina, Sagittariatrifolia and Schoenoplectiella juncoides), and Cyperus iria were sown in plastic pots having a diameter of 7 cm and holes at the bottom and filled with nutrient soil (sandy soil, pH 6.1, organic matter 1%) respectively, the seeds were covered with an appropriate amount of soil after being sown, then the soil was wetted with water from the bottom, the seeds were cultured in a constant-temperature illuminated culture room for 24 h, and the soil was sprayed by using a 3WP-2000 traveling spray tower produced by the Nanjing Institute of Agricultural Mechanization of the Ministry of Agriculture, where a rotational speed of a main shaft was 96 mm/r, a spray height was 300 mm, an effective spraying range of a nozzle was 350 mm, a spray area was 0.35 m^2, and a flow rate at the nozzle was 390 mL/min.
(§3) Post-emergence: an appropriate quantity of seeds of gramineous weeds (Echinochloa crusgalli, Eleusine indica, Digitaria sanguinalis, Alopecurus japonicus, Beckmannia syzigachne, Leptochloa chinensis, Polypogon fugax, Alopecurus aequalis, Lolium multiflorum, Poa annua, Aegilops tauschii, Avena fatua, Alopecurus myosuroides, Alopecurus japonicus and Alopecurus aequalis), broad-leaved weeds (Eclipta prostrata, Amaranthus retroflexus, Rorippa indica, Malachium aquaticum, Veronica polita, Conyza canadensis, Sesbania cannabina, Sagittariatrifolia and Schoenoplectiella juncoides), and Cyperus iria were sown in plastic pots having a diameter of 7 cm and holes at the bottom and filled with nutrient soil (sandy soil, pH 6.1, organic matter 1%) respectively, the seeds were covered with an appropriate amount of soil after being sown, then the soil was wetted with water from the bottom, the seeds were cultured in a constant-temperature illuminated culture room until a 2-4 leaf stage, and stems and leaves underwent spray treatment. After the treatment, the test materials were placed in a laboratory and cultured in the constant-temperature illuminated culture room after the liquid was naturally dry in the shade, and results were determined 21 days later. Inhibition rate of fresh weight % = (1−(fresh weight of treated plants)/(fresh weight of control plants)) × 100% [formula]

[2] = tested on: Alopecurus myosuroides
Source text: as §1, §2, §3

[3] = tested on: Leptochloa chinensis
Source text: as §1, §2, §3

[4] = tested on: Lolium multiflorum
Source text: as §1, §2, §3

[5] = tested on: Alopecurus japonicus
Source text: as §1, §2, §3

[6] = tested on: Eleusine indica
Source text: as §1, §2, §3

[7] = tested on: Cyperus iria; conditions: read-out: Herbicidal activities (inhibition rate) Cyperus iria; for inhibition at 120 g/ha: 120 g a.i./ha; for inhibition at 60 g/ha: 60 g a.i./ha
Source text: as §1, §2, §3

[8] = tested on: Eclipta prostrata; conditions: read-out: Herbicidal activities (inhibition rate) Eclipta prostrata; for inhibition at 120 g/ha: 120 g a.i./ha; for inhibition at 60 g/ha: 60 g a.i./ha
Source text: as §1, §2, §3

[9] = tested on: Aegilops tauschii; conditions: read-out: Herbicidal activities (inhibition rate) Aegilops tauschii; for inhibition at 60 g/ha: 60 g a.i./ha
Source text: as §1, §2, §3

## C=CC1(C(=O)N[C@H]2C[C@@H](C(=O)OC)C2)CC(c2cc(F)cc(F)c2)=NO1 (stereo partly shown) [I-3]
[1]; 120 g a.i./ha
  inhibition at 120 g/ha: 80 to 100%
[2]; Dosage 240 g a.i./ha
  Herbicidal activities, Alopecurus myosuroides (inhibition rate class): A (A indicates that the inhibition rate was greater than or equal to 80% to 100%)
[3]; Dosage 240 g a.i./ha
  Herbicidal activities, Leptochloa chinensis (inhibition rate class): A (A indicates that the inhibition rate was greater than or equal to 80% to 100%)
[4]; Dosage 240 g a.i./ha
  Herbicidal activities, Lolium multiflorum (inhibition rate class): A (A indicates that the inhibition rate was greater than or equal to 80% to 100%)
[5]; Dosage 240 g a.i./ha
  Herbicidal activities, Alopecurus japonicus (inhibition rate class): A (A indicates that the inhibition rate was greater than or equal to 80% to 100%)
[6]; Dosage 240 g a.i./ha
  Herbicidal activities, Eleusine indica (inhibition rate class): A (A indicates that the inhibition rate was greater than or equal to 80% to 100%)
[7]
  inhibition at 120 g/ha: 80 to 100%
[8]
  inhibition at 120 g/ha: 80 to 100%

## C=C[C@]1(C(=O)N[C@H]2C[C@@H](C(=O)OCC3CC3)C2)CC(c2cc(F)cc(Cl)c2)=NO1 [I-35]
[2]; Dosage 120 g a.i./ha
  Herbicidal activities, Alopecurus myosuroides (inhibition rate class): A (A indicates that the inhibition rate was greater than or equal to 80% to 100%)
[3]; Dosage 120 g a.i./ha
  Herbicidal activities, Leptochloa chinensis (inhibition rate class): A (A indicates that the inhibition rate was greater than or equal to 80% to 100%)
[4]; Dosage 120 g a.i./ha
  Herbicidal activities, Lolium multiflorum (inhibition rate class): A (A indicates that the inhibition rate was greater than or equal to 80% to 100%)
[5]; Dosage 120 g a.i./ha
  Herbicidal activities, Alopecurus japonicus (inhibition rate class): A (A indicates that the inhibition rate was greater than or equal to 80% to 100%)
[6]; Dosage 120 g a.i./ha
  Herbicidal activities, Eleusine indica (inhibition rate class): A (A indicates that the inhibition rate was greater than or equal to 80% to 100%)
[7]
  inhibition at 60 g/ha: 60 to 80%
[9]
  inhibition at 60 g/ha: 60 to 80%
[8]
  inhibition at 60 g/ha: 60 to 80%

## C=C[C@]1(C(=O)N[C@H]2C[C@@H](C(=O)NOC(C)C)C2)CC(c2cc(F)cc(Cl)c2)=NO1 [I-36]
[2]; Dosage 120 g a.i./ha
  Herbicidal activities, Alopecurus myosuroides (inhibition rate class): A (A indicates that the inhibition rate was greater than or equal to 80% to 100%)
[3]; Dosage 120 g a.i./ha
  Herbicidal activities, Leptochloa chinensis (inhibition rate class): A (A indicates that the inhibition rate was greater than or equal to 80% to 100%)
[4]; Dosage 120 g a.i./ha
  Herbicidal activities, Lolium multiflorum (inhibition rate class): B (B indicates that the inhibition rate was greater than or equal to 60% to less than 80%)
[5]; Dosage 120 g a.i./ha
  Herbicidal activities, Alopecurus japonicus (inhibition rate class): A (A indicates that the inhibition rate was greater than or equal to 80% to 100%)
[6]; Dosage 120 g a.i./ha
  Herbicidal activities, Eleusine indica (inhibition rate class): A (A indicates that the inhibition rate was greater than or equal to 80% to 100%)
[7]
  inhibition at 60 g/ha: 60 to 80%
[9]
  inhibition at 60 g/ha: 60 to 80%
[8]
  inhibition at 60 g/ha: 60 to 80%

## C=C[C@]1(C(=O)N[C@H]2C=C[C@@H](C(=O)O)C2)CC(c2cc(F)cc(C(F)(F)F)c2)=NO1 [I-426]
[1]
  inhibition at 60 g/ha: 80 to 100%
[2]; Dosage 120 g a.i./ha
  Herbicidal activities, Alopecurus myosuroides (inhibition rate class): A (A indicates that the inhibition rate was greater than or equal to 80% to 100%)
[3]; Dosage 120 g a.i./ha
  Herbicidal activities, Leptochloa chinensis (inhibition rate class): A (A indicates that the inhibition rate was greater than or equal to 80% to 100%)
[4]; Dosage 120 g a.i./ha
  Herbicidal activities, Lolium multiflorum (inhibition rate class): A (A indicates that the inhibition rate was greater than or equal to 80% to 100%)
[5]; Dosage 120 g a.i./ha
  Herbicidal activities, Alopecurus japonicus (inhibition rate class): A (A indicates that the inhibition rate was greater than or equal to 80% to 100%)
[6]; Dosage 120 g a.i./ha
  Herbicidal activities, Eleusine indica (inhibition rate class): A (A indicates that the inhibition rate was greater than or equal to 80% to 100%)
[7]
  inhibition at 60 g/ha: 80 to 100%
[8]
  inhibition at 60 g/ha: 60 to 80%

## C=C[C@]1(C(=O)N[C@H]2C=C[C@@H](C(=O)OC)C2)CC(c2cc(F)cc(C(F)(F)F)c2)=NO1 [I-428]
[1]
  inhibition at 60 g/ha: 80 to 100%
[2]; Dosage 120 g a.i./ha
  Herbicidal activities, Alopecurus myosuroides (inhibition rate class): A (A indicates that the inhibition rate was greater than or equal to 80% to 100%)
[3]; Dosage 120 g a.i./ha
  Herbicidal activities, Leptochloa chinensis (inhibition rate class): A (A indicates that the inhibition rate was greater than or equal to 80% to 100%)
[4]; Dosage 120 g a.i./ha
  Herbicidal activities, Lolium multiflorum (inhibition rate class): A (A indicates that the inhibition rate was greater than or equal to 80% to 100%)
[5]; Dosage 120 g a.i./ha
  Herbicidal activities, Alopecurus japonicus (inhibition rate class): A (A indicates that the inhibition rate was greater than or equal to 80% to 100%)
[6]; Dosage 120 g a.i./ha
  Herbicidal activities, Eleusine indica (inhibition rate class): A (A indicates that the inhibition rate was greater than or equal to 80% to 100%)
[7]
  inhibition at 60 g/ha: 80 to 100%
[8]
  inhibition at 60 g/ha: 60 to 80%

## C=C[C@]1(C(=O)N[C@H]2C=C[C@@H](C(=O)OCCCOC)C2)CC(c2cc(F)cc(C(F)(F)F)c2)=NO1 [I-436]
[1]
  inhibition at 60 g/ha: 80 to 100%
[2]; Dosage 120 g a.i./ha
  Herbicidal activities, Alopecurus myosuroides (inhibition rate class): A (A indicates that the inhibition rate was greater than or equal to 80% to 100%)
[3]; Dosage 120 g a.i./ha
  Herbicidal activities, Leptochloa chinensis (inhibition rate class): A (A indicates that the inhibition rate was greater than or equal to 80% to 100%)
[4]; Dosage 120 g a.i./ha
  Herbicidal activities, Lolium multiflorum (inhibition rate class): B (B indicates that the inhibition rate was greater than or equal to 60% to less than 80%)
[5]; Dosage 120 g a.i./ha
  Herbicidal activities, Alopecurus japonicus (inhibition rate class): A (A indicates that the inhibition rate was greater than or equal to 80% to 100%)
[6]; Dosage 120 g a.i./ha
  Herbicidal activities, Eleusine indica (inhibition rate class): A (A indicates that the inhibition rate was greater than or equal to 80% to 100%)
[7]
  inhibition at 60 g/ha: 60 to 80%
[8]
  inhibition at 60 g/ha: 60 to 80%

## C=C[C@]1(C(=O)N[C@H]2C=C[C@@H](C(=O)OCCOC)C2)CC(c2cc(F)cc(C(F)(F)F)c2)=NO1 [I-443]
[1]
  inhibition at 60 g/ha: 80 to 100%
[3]; Dosage 120 g a.i./ha
  Herbicidal activities, Leptochloa chinensis (inhibition rate class): A (A indicates that the inhibition rate was greater than or equal to 80% to 100%)
[6]; Dosage 120 g a.i./ha
  Herbicidal activities, Eleusine indica (inhibition rate class): A (A indicates that the inhibition rate was greater than or equal to 80% to 100%)
[7]
  inhibition at 60 g/ha: 80 to 100%
[8]
  inhibition at 60 g/ha: 80 to 100%

## COC(=O)[C@@H]1C=C[C@H](NC(=O)C2(C)CC(c3cc(F)cc(C(F)(F)F)c3)=NO2)C1 (stereo partly shown) [I-495]
[2]; Dosage 240 g a.i./ha
  Herbicidal activity (inhibition rate class), Alopecurus myosuroides: A (A indicates that the inhibition rate was greater than or equal to 80% to 100%)
[3]; Dosage 240 g a.i./ha
  Herbicidal activity (inhibition rate class), Leptochloa chinensis: A (A indicates that the inhibition rate was greater than or equal to 80% to 100%)
[4]; Dosage 240 g a.i./ha
  Herbicidal activity (inhibition rate class), Lolium multiflorum: A (A indicates that the inhibition rate was greater than or equal to 80% to 100%)
[5]; Dosage 240 g a.i./ha
  Herbicidal activity (inhibition rate class), Alopecurus japonicus: A (A indicates that the inhibition rate was greater than or equal to 80% to 100%)
[6]; Dosage 240 g a.i./ha
  Herbicidal activity (inhibition rate class), Eleusine indica: A (A indicates that the inhibition rate was greater than or equal to 80% to 100%)
[7]
  inhibition at 120 g/ha: 80 to 100%
[9]; 120 g a.i./ha
  inhibition at 120 g/ha: 80 to 100%
[8]
  inhibition at 120 g/ha: 60 to 80%

## C[C@]1(C(=O)N[C@H]2C=C[C@@H](C(=O)OCCBr)C2)CC(c2cc(F)cc(C(F)(F)F)c2)=NO1 [I-501]
[1]
  inhibition at 60 g/ha: 80 to 100%
[3]; Dosage 120 g a.i./ha
  Herbicidal activity (inhibition rate class), Leptochloa chinensis: A (A indicates that the inhibition rate was greater than or equal to 80% to 100%)
[6]; Dosage 120 g a.i./ha
  Herbicidal activity (inhibition rate class), Eleusine indica: A (A indicates that the inhibition rate was greater than or equal to 80% to 100%)
[7]
  inhibition at 60 g/ha: 60 to 80%
[8]
  inhibition at 60 g/ha: 60 to 80%

## COC(=O)[C@@H]1C=C[C@H](NC(=O)[C@@]2(C(F)(F)F)CC(c3cc(Cl)cc(C(F)(F)F)c3)=NO2)C1 [I-524]
[1]
  inhibition at 60 g/ha: 80 to 100%
[2]; Dosage 120 g a.i./ha
  Herbicidal activity (inhibition rate class), Alopecurus myosuroides: B (B indicates that the inhibition rate was greater than or equal to 60% to less than 80%)
[3]; Dosage 120 g a.i./ha
  Herbicidal activity (inhibition rate class), Leptochloa chinensis: A (A indicates that the inhibition rate was greater than or equal to 80% to 100%)
[5]; Dosage 120 g a.i./ha
  Herbicidal activity (inhibition rate class), Alopecurus japonicus: A (A indicates that the inhibition rate was greater than or equal to 80% to 100%)
[6]; Dosage 120 g a.i./ha
  Herbicidal activity (inhibition rate class), Eleusine indica: A (A indicates that the inhibition rate was greater than or equal to 80% to 100%)
[7]
  inhibition at 60 g/ha: 80 to 100%
[8]
  inhibition at 60 g/ha: 60 to 80%
